{"source": "patent US9474757B2", "about": "“Methods for treating cancer using TOR kinase inhibitor combination therapy” (Signal Pharmaceuticals, LLC, priority 2013, dated 2016)", "test_system": "WSU-DLCL2 xenograft", "experiment": "DLBCL xenograft model (WSU-DLCL2)", "format": "in vivo, SCID mice", "conditions": "combination study", "description": "Severe combined immunodeficiency (SCID) mice were implanted with human DLBCL cell line (WSU-DLCL2) into the flank. Treatment of compounds started between Day 11 and Day 14 after cell inoculation. Randomized groups of mice (n=9 to 10/group) were treated with the single agents (Compound 1, Compound A or Compound AA) or the combination of Compound 1/Compound A, Compound A/Compound AA, or Compound 1/Compound AA. Compounds were administered orally on a once daily (Compound 1 and Compound A) or twice daily […] schedule for 21 days. The positive control consisted of CHOP therapy (combination of cyclophosphamide, doxorubicin, vincristine and prednisone). Compound 1 and Compound A were formulated in CMC-Tween (carboxymethylcellulose/Tween 80/deionized water). Compound AA was suspended in DSP (dimethylsulphoxide/solutol/phosphate buffered saline).\nInitial studies were conducted in order to determine the antitumor activity of Compound 1 and to identify a dose level for the combination studies. In the WSU-DLCL2 xenograft model, Compound 1 inhibited tumor growth in a dose-dependent fashion. […] In a subsequent combination study, Compound 1 was dosed at 10 mg/kg, once daily (QD). Compound A and Compound AA were dosed at 30 mg/kg (QD) and 50 mg/kg (BID), respectively.", "note": "“Also recorded” adds a separate entry of the source.", "data": [{"compound": "C=CC(=O)Nc1cccc(Nc2nc(Nc3ccc(OCCOC)cc3)ncc2F)c1", "note": "[Compound AA, N-(3-(5-fluoro-2-(4-(2-methoxyethoxy)phenylamino)pyrimidin-4-ylamino)phenyl)acrylamide]", "values": [{"measurement": "antitumor activity", "setting": "Day 34, Compound 1 10 mg/kg QD, Compound A 30 mg/kg QD, Compound AA 50 mg/kg BID, combinations compared with single agent", "value": "No significant antitumor activity; also recorded: inactive"}, {"measurement": "body weight loss", "setting": "single agents or in combination", "value": "No significant body weight loss"}]}]}
